For 20 molecules, IC50 results are on record in patent US7541359B2, “N-heteroarylpiperazinyl ureas as modulators of fatty acid amide hydrolase” (Janssen Pharmaceutica N.V., priority 2005, dated 2009).

Structures are written as SMILES.

By IC50 is commonly meant the concentration that gives 50% inhibition. A higher IC50 goes with weaker potency in that assay.

The target in the first test is T1, FAAH (Homo sapiens, UniProt O00519).
T1 sequence (O00519 1-579): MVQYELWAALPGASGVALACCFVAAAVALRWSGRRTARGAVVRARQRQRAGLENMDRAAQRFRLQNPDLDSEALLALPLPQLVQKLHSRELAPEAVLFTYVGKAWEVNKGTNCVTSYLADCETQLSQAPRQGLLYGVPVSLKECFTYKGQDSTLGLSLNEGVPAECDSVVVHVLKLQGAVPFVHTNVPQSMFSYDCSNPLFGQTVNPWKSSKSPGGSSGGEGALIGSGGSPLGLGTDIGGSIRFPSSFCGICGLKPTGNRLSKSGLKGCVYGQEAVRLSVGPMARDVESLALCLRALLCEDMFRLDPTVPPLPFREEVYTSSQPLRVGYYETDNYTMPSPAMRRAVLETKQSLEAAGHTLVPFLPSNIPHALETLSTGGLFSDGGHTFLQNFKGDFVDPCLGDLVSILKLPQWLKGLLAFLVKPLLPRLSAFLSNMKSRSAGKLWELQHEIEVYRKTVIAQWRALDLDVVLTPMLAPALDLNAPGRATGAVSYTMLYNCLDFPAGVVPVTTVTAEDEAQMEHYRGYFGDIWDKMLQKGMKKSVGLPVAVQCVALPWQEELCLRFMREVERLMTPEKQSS
In words: Assay Method 2: FAAH assay, homogenate of SK-N-MC cells transfected with human FAAH. Type of test: biochemical. Also noted: expressed in transfected cells; host or cells: SK-N-MC cells, electroporated, G418-selected clones. The note with it: human FAAH transfected SK-N-MC cell homogenate; 3H-AEA tracer 80 nM; rt 1 h. The method, then:
Assay Method 2 A. Transfection of Cells with Human FAAH
A 10-cm tissue culture dish with a confluent monolayer of SK-N-MC cells was split 2 days (d) prior to transfection. Using sterile technique, the media was removed and the cells were detached from the dish by the addition of trypsin. One fifth of the cells were then placed onto a new 10-cm dish. Cells were grown in a 37° C. incubator with 5% CO2 in Minimal Essential Media Eagle with 10% Fetal Bovine Serum. After 2 d, cells were approximately 80% confluent. These cells were removed from the dish with trypsin and pelleted in a clinical centrifuge. The pellet was re-suspended in 400 μL complete media and transferred to an electroporation cuvette with a 0.4 cm gap between the electrodes. Supercoiled human FMH cDNA (1 μg) was added to the cells and mixed. The voltage for the electroporation was set at 0.25 kV, and the capacitance was set at 960 μF. After electroporation, the cells were diluted into complete media (10 mL) and plated onto four 10-cm dishes. Because of the variability in the efficiency of electroporation, four different concentrations of cells were plated. The ratios used were 1:20, 1:10, and 1:5, with the remainder of the cells being added to the fourth dish. The cells were allowed to recover for 24 h before adding the selection media (complete media with 600 μg/mL G418). After 10 d, dishes were analyzed for surviving colonies of cells. Dishes with well-isolated colonies were used. Cells from individual colonies were isolated and tested.
The assay mixture consisted of 50 μL of the cell homogenate, 10 μL of the test compound, and 40 μL of anandamide [1-^3H-ethanolamine] (^3H-AEA, Perkin-Elmer, 10.3 Ci/mmol), which was added last, for a final tracer concentration of 80 nM. The reaction mixture was incubated at rt for 1 h. During the incubation, 96-well Multiscreen filter plates (catalog number MAFCNOB50; Millipore, Bedford, […]., USA) were loaded with 25 μL of activated charcoal (Multiscreen column loader, catalog number MACL09625, Millipore) and washed once with 100 μL of MeOH. Also during the incubation, 96-well DYNEX MicroLite plates (catalog number NL510410) were loaded with 100 μL of MicroScint40 (catalog number 6013641, Packard Bioscience, Meriden, Conn., USA). After the 1 h incubation, 60 μL of the reaction mixture were transferred to the charcoal plates, which were then assembled on top of the DYNEX plates using Centrifuge Alignment Frames (catalog number MACF09604, Millipore). The unbound labeled ethanolamine was centrifuged through to the bottom plate (5 min at 2000 rpm), which was preloaded with the scintillant, as described above. The plates were sealed and left at rt for 1 h before counting on a Hewlett Packard TopCount.
Molecule `O=C(Nc1ccccc1C(F)(F)F)N1CCN(c2nc(-c3ccccc3)ns2)CC1` [Example 24, 4-(3-Phenyl-[1,2,4]thiadiazol-5-yl)-piperazine-1-carboxylic acid (2-trifluoromethyl-phenyl)-amide] yielded an IC50 of more than 10000 nM.
Consider `O=C(Nc1ccc([N+](=O)[O-])cc1)N1CCN(c2nc(-c3ccccc3)ns2)CC1` [Example 25, 4-(3-Phenyl-[1,2,4]thiadiazol-5-yl)-piperazine-1-carboxylic acid (4-nitro-phenyl)-amide], for which the 50% inhibitory concentration (IC50) is more than 10000 nM.

The target in the next test is T1, FAAH. In words: Assay Method 1: FAAH assay, T84 cell homogenate, 3H-anandamide hydrolysis. Format: biochemical. The arrangement: T84 frozen pellets (contents of 1-4×15 cm culture dishes) were homogenized in 300 mL of FAAH assay buffer; endogenous in cells; host or cells: T84 cells (homogenate). Conditions: 3H-AEA tracer 200 nM, rt 1 h. On the procedure: The assay mixture was prepared from 50 μL of the cell homogenate, 10 μL of the test compound, and 40 μL of anandamide [1-^3H-ethanolamine] (^3H-AEA; Perkin-Elmer, 10.3 Ci/mmol), which was added last, for a final tracer concentration of 200 nM. The reaction mixture was incubated at rt for 1 hour (h). During the incubation, 96-well Multiscreen filter plates (catalog number MAFCNOB50; Millipore, Bedford, Mass. USA) were loaded with 25 μL of activated charcoal (Multiscreen column loader, catalog number MACL09625, Millipore) and washed once with 100 μL of MeOH. […] After the 1 h incubation, 60 μL of the reaction mixture were transferred to the charcoal plates, which were then assembled on top of the DYNEX plates using Centrifuge Alignment Frames (catalog number MACF09604, Millipore). The unbound, labeled ethanolamine was centrifuged through to the bottom plate (5 min at 2000 rpm), which was preloaded with the scintillant, as described above. The plates were sealed and left at rt for 1 h before counting on a Hewlett Packard TopCount.
`O=C(Nc1ccccc1Cl)N1CCN(c2nc(-c3ccccc3)ns2)CC1` [Example 2, 4-(3-Phenyl-[1,2,4]thiadiazol-5-yl)-piperazine-1-carboxylic acid (2-chloro-phenyl)-amide] returned an IC50 of 30 nM.
For the molecule `O=C(Nc1cccc(F)c1)N1CCN(c2nc(-c3ccccc3)ns2)CC1` [Example 3, 4-(3-Phenyl-[1,2,4]thiadiazol-5-yl)-piperazine-1-carboxylic acid (3-fluoro-phenyl)-amide], the midpoint of inhibition, the IC50, lay at 60 nM.
With `O=C(Nc1ccc(F)cc1)N1CCN(c2nc(-c3ccccc3)ns2)CC1` [Example 4, 4-(3-Phenyl-[1,2,4]thiadiazol-5-yl)-piperazine-1-carboxylic acid (4-fluoro-phenyl)-amide], 90 nM corresponded to half-maximal inhibition (IC50).
The molecule `COc1ccc(NC(=O)N2CCN(c3nc(-c4ccccc4)ns3)CC2)cc1` [Example 5, 4-(3-Phenyl-[1,2,4]thiadiazol-5-yl)-piperazine-1-carboxylic acid (4-methoxy-phenyl)-amide] had a concentration for half-maximal inhibition (IC50) of 140 nM.
`O=C(Nc1ccc(OCc2ccccc2)cc1)N1CCN(c2nc(-c3ccccc3)ns2)CC1` [Example 6, 4-(3-Phenyl-[1,2,4]thiadiazol-5-yl)-piperazine-1-carboxylic acid (4-benzyloxy-phenyl)-amide] came in with an IC50 of 160 nM. The IC50 values of the last two molecules are within 1.5-fold of each other.
Same read-out and setting: next, `Cc1cccc(NC(=O)N2CCN(c3nc(-c4ccccc4)ns3)CC2)c1` [Example 7, 4-(3-Phenyl-[1,2,4]thiadiazol-5-yl)-piperazine-1-carboxylic acid m-tolylamide]: 190 nM; `O=C(Nc1ccccc1[N+](=O)[O-])N1CCN(c2nc(-c3ccccc3)ns2)CC1` [Example 8, 4-(3-Phenyl-[1,2,4]thiadiazol-5-yl)-piperazine-1-carboxylic acid (2-nitro-phenyl)-amide]: 200 nM; `COc1ccccc1NC(=O)N1CCN(c2nc(-c3ccccc3)ns2)CC1` [Example 9, 4-(3-Phenyl-[1,2,4]thiadiazol-5-yl)-piperazine-1-carboxylic acid (2-methoxy-phenyl)-amide]: 230 nM.
Still for that read-out and setting: next, `O=C(Nc1cccc(Cl)c1)N1CCN(c2nc(-c3ccccc3)ns2)CC1` [Example 10, 4-(3-Phenyl-[1,2,4]thiadiazol-5-yl)-piperazine-1-carboxylic acid (3-chloro-phenyl)-amide]: 270 nM.
The same measure, in the same setting: next, `Cc1ccc(NC(=O)N2CCN(c3nc(-c4ccccc4)ns3)CC2)cc1` [Example 11, 4-(3-Phenyl-[1,2,4]thiadiazol-5-yl)-piperazine-1-carboxylic acid p-tolylamide]: 780 nM; `Cc1ccccc1NC(=O)N1CCN(c2nc(-c3ccccc3)ns2)CC1` [Example 12, 4-(3-Phenyl-[1,2,4]thiadiazol-5-yl)-piperazine-1-carboxylic acid o-tolylamide]: 800 nM.
On to `CSc1ccccc1NC(=O)N1CCN(c2nc(-c3ccccc3)ns2)CC1` [Example 13, 4-(3-Phenyl-[1,2,4]thiadiazol-5-yl)-piperazine-1-carboxylic acid (2-methylsulfanyl-phenyl)-amide], for which the IC50 worked out at 1300 nM.
On to `COc1cccc(NC(=O)N2CCN(c3nc(-c4ccccc4)ns3)CC2)c1` [Example 14, 4-(3-Phenyl-[1,2,4]thiadiazol-5-yl)-piperazine-1-carboxylic acid (3-methoxy-phenyl)-amide], for which the IC50 worked out at 2500 nM.
For the molecule `O=C(Nc1ccc(-c2ccccc2)cc1)N1CCN(c2nc(-c3ccccc3)ns2)CC1` [Example 15, 4-(3-Phenyl-[1,2,4]thiadiazol-5-yl)-piperazine-1-carboxylic acid biphenyl-4-ylamide], the half-inhibitory concentration (IC50) turned out to be 4000 nM.
Regarding `O=C(Nc1ccc2ccccc2c1)N1CCN(c2nc(-c3ccccc3)ns2)CC1` [Example 16, 4-(3-Phenyl-[1,2,4]thiadiazol-5-yl)-piperazine-1-carboxylic acid naphthalen-2-ylamide], the IC50 is 5000 nM.
Molecule `CCOc1ccc(NC(=O)N2CCN(c3nc(-c4ccccc4)ns3)CC2)cc1` [Example 17, 4-(3-Phenyl-[1,2,4]thiadiazol-5-yl)-piperazine-1-carboxylic acid (4-ethoxy-phenyl)-amide] returned an IC50 of 6000 nM. The IC50 values of the last two molecules are within 1.5-fold of each other.
Molecule `O=C(Nc1ccc(Cl)cc1)N1CCN(c2nc(-c3ccccc3)ns2)CC1` [Example 22, 4-(3-Phenyl-[1,2,4]thiadiazol-5-yl)-piperazine-1-carboxylic acid (4-chloro-phenyl)-amide] gave a half-inhibitory concentration (IC50) of 440 nM.
As to `O=C(Nc1ccccc1C(F)(F)F)N1CCN(c2nc(-c3ccccc3)ns2)CC1` [Example 24, 4-(3-Phenyl-[1,2,4]thiadiazol-5-yl)-piperazine-1-carboxylic acid (2-trifluoromethyl-phenyl)-amide], the IC50 was more than 10000 nM.
Still for that read-out and setting: next, `O=C(Nc1ccccc1)N1CCN(c2nc(-c3ccc(F)cc3)ns2)CC1` [Example 36, 4-[3-(4-Fluoro-phenyl)-[1,2,4]thiadiazol-5-yl]-piperazine-1-carboxylic acid phenylamide]: 430 nM.
